Test results taken from ChEMBL document CHEMBL1135926, “Structure-based design of novel potent nonpeptide thrombin inhibitors” (J Med Chem, 2002).

target: Vitamin K-dependent protein C (Homo sapiens, UniProt P04070); assay: Inhibitory constant (Ki) was determined against human Activated protein C
Sequence (P04070 43-197 limits assumed): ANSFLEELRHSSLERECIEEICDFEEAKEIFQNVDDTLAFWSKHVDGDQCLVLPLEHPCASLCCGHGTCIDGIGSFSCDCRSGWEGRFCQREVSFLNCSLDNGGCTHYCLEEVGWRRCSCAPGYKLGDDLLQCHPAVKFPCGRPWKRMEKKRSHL
Sequence (P04070 212-461 limits assumed): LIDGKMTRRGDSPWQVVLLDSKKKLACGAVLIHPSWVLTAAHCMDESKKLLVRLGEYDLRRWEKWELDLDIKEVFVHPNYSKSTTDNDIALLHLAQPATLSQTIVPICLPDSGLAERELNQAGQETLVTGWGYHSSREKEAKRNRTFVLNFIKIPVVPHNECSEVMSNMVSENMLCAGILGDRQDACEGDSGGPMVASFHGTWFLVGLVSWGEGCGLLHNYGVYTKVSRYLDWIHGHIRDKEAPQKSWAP

Compound | Ki [nM]
Cn1c(CNc2ccc(C(=N)N)cc2)nc2cc(C(=O)N(CCC(=O)O)c3ccccn3)ccc21 [DABIGATRAN] | 20900

species: Homo sapiens; assay: Effective dose was determined against human plasma using PTT reagent; type: functional

Compound | ED2 [µM]
Cn1c(CNc2ccc(C(=N)N)cc2)nc2cc(C(=O)N(CCC(=O)O)c3ccccn3)ccc21 [DABIGATRAN] | 0.23

target: Tissue-type plasminogen activator (Homo sapiens, UniProt P00750); assay: Inhibitory constant (Ki) was determined against human Tissue plasminogen activator (tissue plasminogen activator)
Sequence (P00750 whole entry): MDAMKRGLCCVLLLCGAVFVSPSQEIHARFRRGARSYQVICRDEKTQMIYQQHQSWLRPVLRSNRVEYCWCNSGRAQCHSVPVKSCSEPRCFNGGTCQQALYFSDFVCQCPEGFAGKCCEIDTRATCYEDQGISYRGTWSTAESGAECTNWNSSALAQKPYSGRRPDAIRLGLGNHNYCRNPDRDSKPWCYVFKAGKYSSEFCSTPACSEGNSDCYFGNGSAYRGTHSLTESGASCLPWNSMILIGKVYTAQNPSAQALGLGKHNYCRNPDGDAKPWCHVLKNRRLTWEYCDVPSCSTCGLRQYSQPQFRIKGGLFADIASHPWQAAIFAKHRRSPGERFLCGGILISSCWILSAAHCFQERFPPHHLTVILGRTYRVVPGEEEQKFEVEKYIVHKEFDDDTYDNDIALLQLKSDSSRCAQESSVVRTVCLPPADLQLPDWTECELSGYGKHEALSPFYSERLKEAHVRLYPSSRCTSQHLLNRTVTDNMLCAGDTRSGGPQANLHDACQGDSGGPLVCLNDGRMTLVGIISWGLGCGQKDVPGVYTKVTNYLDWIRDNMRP

Compound | Ki [nM]
Cn1c(CNc2ccc(C(=N)N)cc2)nc2cc(C(=O)N(CCC(=O)O)c3ccccn3)ccc21 [DABIGATRAN] | 45400

target: Prothrombin (Homo sapiens, UniProt P00734); assay: Inhibition of human thrombin by chromogenic assay

Compound | IC50 [nM]
Cn1c(CNc2ccc(C(=N)N)cc2)nc2cc(N(CC(=O)O)S(=O)(=O)c3cccc4cccnc34)ccc21 | 11
Cn1c(Cc2ccc(C(=N)N)cc2)nc2cc(NS(=O)(=O)c3ccc4ccccc4c3)ccc21 | 24000
Cn1c(CCc2ccc(C(=N)N)cc2)nc2cc(C(=O)N(CC(=O)O)c3ccccc3)ccc21 | 54
Cn1c(Cc2ccc(C(=N)N)cc2)nc2cc(N(CCCC(=O)O)S(=O)(=O)c3cccc4cccnc34)ccc21 | 130
Cn1c(Cc2ccc(C(=N)N)cc2)nc2cc(NS(=O)(=O)c3cccnc3)ccc21 | 1600
Cn1c(Cc2ccc(C(=N)N)cc2)nc2cc(NS(=O)(=O)c3cccc4ccccc34)ccc21 | 600
COc1ccc(OC)c(S(=O)(=O)Nc2ccc3c(c2)nc(Cc2ccc(C(=N)N)cc2)n3C)c1 | 1800
Cn1c(CCc2ccc(C(=N)N)cc2)nc2cc(N(CC(=O)O)S(=O)(=O)c3cccc4cccnc34)ccc21 | 32
Cn1c(Cc2ccc(C(=N)N)cc2)nc2cc(NS(=O)(=O)c3cccc4cccnc34)ccc21 | 260
Cn1c(Cc2ccc(C(=N)N)cc2)nc2cc(N(CC(=O)O)S(=O)(=O)c3cccc4cccnc34)ccc21 | 120
CCCn1c(Cc2ccc(C(=N)N)cc2)nc2cc(NS(=O)(=O)c3ccccc3)ccc21 | 4000
Cn1c(CNc2ccc(C(=N)N)cc2)nc2cc(C(=O)N(CCC(=O)O)c3ccccc3)ccc21 | 5.4
Cn1c(Cc2ccc(C(=N)N)cc2)nc2cc(NS(=O)(=O)c3cc(C(F)(F)F)cc(C(F)(F)F)c3)ccc21 | > 100000
CCn1c(Cc2ccc(C(=N)N)cc2)nc2cc(NS(=O)(=O)c3ccccc3)ccc21 | 2400
Cn1c(CNc2ccc(C(=N)N)cc2)nc2cc(C(=O)N(CC(=O)O)c3ccccc3)ccc21 | 10
N=C(N)c1ccc(Cc2nc3cc(NS(=O)(=O)c4ccccc4)ccc3[nH]2)cc1 | 19000
Cn1c(COc2ccc(C(=N)N)cc2)nc2cc(C(=O)N(CC(=O)O)c3ccccc3)ccc21 | 330
Cn1c(CNc2ccc(C(=N)N)cc2)nc2cc(C(=O)N(CCCC(=O)O)c3ccccc3)ccc21 | 10
CN(c1ccc2c(c1)nc(Cc1ccc(C(=N)N)cc1)n2C)S(=O)(=O)c1ccccc1 | 1300
Cn1c(Cc2ccc(C(=N)N)cc2)nc2cc(NS(=O)(=O)c3cccc4cnccc34)ccc21 | 510
Cn1c(COc2ccc(C(=N)N)cc2)nc2cc(N(CC(=O)O)S(=O)(=O)c3cccc4cccnc34)ccc21 | 58

target: Trypsin (Homo sapiens, UniProt P07477+P07478+P35030); assay: Inhibitory constant (Ki) was determined against human trypsin; type: protein assay

Compound | Ki [nM]
Cn1c(CNc2ccc(C(=N)N)cc2)nc2cc(C(=O)N(CCC(=O)O)c3ccccn3)ccc21 [DABIGATRAN] | 50.3

target: Plasminogen (Homo sapiens, UniProt P00747); assay: Inhibitory constant (Ki) was determined against human plasmin
Sequence (P00747 97-580 limits assumed): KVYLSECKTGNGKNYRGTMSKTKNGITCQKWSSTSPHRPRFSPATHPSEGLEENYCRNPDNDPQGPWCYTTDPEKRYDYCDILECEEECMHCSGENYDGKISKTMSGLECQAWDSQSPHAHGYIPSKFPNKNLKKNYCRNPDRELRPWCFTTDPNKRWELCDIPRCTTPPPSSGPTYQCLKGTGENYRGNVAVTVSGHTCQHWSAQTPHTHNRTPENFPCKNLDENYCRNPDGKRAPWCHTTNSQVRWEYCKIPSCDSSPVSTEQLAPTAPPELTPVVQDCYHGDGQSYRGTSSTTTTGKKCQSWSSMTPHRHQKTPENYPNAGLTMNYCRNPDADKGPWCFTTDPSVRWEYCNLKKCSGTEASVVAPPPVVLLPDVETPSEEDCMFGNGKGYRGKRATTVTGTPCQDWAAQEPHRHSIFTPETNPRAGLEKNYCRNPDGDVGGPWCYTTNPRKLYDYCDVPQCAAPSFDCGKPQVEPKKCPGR
Sequence (P00747 581-810 limits assumed): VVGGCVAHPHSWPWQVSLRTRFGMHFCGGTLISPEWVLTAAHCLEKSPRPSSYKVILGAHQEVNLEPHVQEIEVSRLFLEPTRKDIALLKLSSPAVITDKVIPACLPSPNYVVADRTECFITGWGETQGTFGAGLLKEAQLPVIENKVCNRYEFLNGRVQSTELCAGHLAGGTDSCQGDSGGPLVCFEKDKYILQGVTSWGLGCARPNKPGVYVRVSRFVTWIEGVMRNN

Compound | Ki [nM]
Cn1c(CNc2ccc(C(=N)N)cc2)nc2cc(C(=O)N(CCC(=O)O)c3ccccn3)ccc21 [DABIGATRAN] | 1690
